The target in the test is MCH receptor (Homo sapiens, UniProt Q99705). The test can be described thus: High throughput functional screening FLIPR/FDSS6000: inhibition of MCH-evoked intracellular Ca2+ changes. The note with it: class by percent of control at 10^-7 M or IC50. It is filed as cell-based. A digest of the protocol:
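Antagonism is measured as inhibition of the intracellular calcium rise triggered by 50 nM MCH in cells bearing a constitutively active, non-endogenous form of the receptor. Cells are dye-loaded with Fluo4-AM and exposed to compound for 3 min at 37° C before agonist addition.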

For `Cc1ccc(NC(=O)NC[C@H]2CC[C@@H](Nc3nc(N(C)C)c4ccccc4n3)CC2)c([N+](=O)[O-])c1` [compound 445, N-[(cis-4-{[4-(dimethylamino)quinazolin-2-yl]amino}cyclohexyl)methyl]-N′-(4-methyl-2-nitrophenyl)urea], the class is 2 (Class 2: The value of percent of control at 10^−7 M was from 40% to 60% or the value of IC50 was from 50 nM to 200 nM.). Take `COc1ccccc1NC(=O)NC[C@H]1CC[C@@H](Nc2nc(N(C)C)c3ccccc3n2)CC1` [compound 446, N-[(cis-4-{[4-(dimethylamino)quinazolin-2-yl]amino}cyclohexyl)methyl]-N′-(2-methoxyphenyl)urea]: the class was 2 (Class 2: The value of percent of control at 10^−7 M was from 40% to 60% or the value of IC50 was from 50 nM to 200 nM.). The value for `COc1cccc(NC(=O)NC[C@H]2CC[C@@H](Nc3nc(N(C)C)c4ccccc4n3)CC2)c1` [compound 447, N-[(cis-4-{[4-(dimethylamino)quinazolin-2-yl]amino}cyclohexyl)methyl]-N′-(3-methoxyphenyl)urea] was 2 (Class 2: The value of percent of control at 10^−7 M was from 40% to 60% or the value of IC50 was from 50 nM to 200 nM.); that for `CSc1ccc(NC(=O)NC[C@H]2CC[C@@H](Nc3nc(N(C)C)c4ccccc4n3)CC2)cc1` [compound 448, N-[(cis-4-{[4-(dimethylamino)quinazolin-2-yl]amino}cyclohexyl)methyl]-N′-[4-(methylthio)phenyl]urea] was 1 (Class 1: The value of percent of control at 10^−7 M was less than 40% or the value of IC50 was less than 50 nM.); that for `COc1ccc(CNC(=O)NC[C@H]2CC[C@@H](Nc3nc(N(C)C)c4ccccc4n3)CC2)cc1` [compound 449] was 3 (Class 3: The value of percent of control at 10^−7 M was more than 60% or the value of IC50 was more than 200 nM.). For `CN(C)c1nc(N[C@H]2CC[C@@H](CNC(=O)Nc3cccc4ccccc34)CC2)nc2ccccc12` [compound 450, N-[(cis-4-{[4-(dimethylamino)quinazolin-2-yl]amino}cyclohexyl)methyl]-N′-1-naphthylurea] the value was 2 (Class 2: The value of percent of control at 10^−7 M was from 40% to 60% or the value of IC50 was from 50 nM to 200 nM.); for `CN(C)c1nc(N[C@H]2CC[C@@H](CNC(=O)NC3C[C@H]3c3ccccc3)CC2)nc2ccccc12` (stereo partly shown) [compound 451], 3 (Class 3: The value of percent of control at 10^−7 M was more than 60% or the value of IC50 was more than 200 nM.); for `CN(C)c1nc(N[C@H]2CC[C@@H](CNC(=O)Nc3ccccc3)CC2)nc2ccccc12` [compound 452, N-[(cis-4-{[4-(dimethylamino)quinazolin-2-yl]amino}cyclohexyl)methyl]-N′-phenylurea], 1 (Class 1: The value of percent of control at 10^−7 M was less than 40% or the value of IC50 was less than 50 nM.). The value for `CN(C)c1nc(N[C@H]2CC[C@@H](CNC(=O)Nc3ccc(Oc4ccccc4)cc3)CC2)nc2ccccc12` [compound 453] was 3 (Class 3: The value of percent of control at 10^−7 M was more than 60% or the value of IC50 was more than 200 nM.). For the compound `CCCCCNC(=O)NC[C@H]1CC[C@@H](Nc2nc(N(C)C)c3ccccc3n2)CC1` [compound 454, N-[(cis-4-{[4-(dimethylamino)quinazolin-2-yl]amino}cyclohexyl)methyl]-N′-pentylurea], the class is 2 (Class 2: The value of percent of control at 10^−7 M was from 40% to 60% or the value of IC50 was from 50 nM to 200 nM.).

For the compound `CN(C)c1nc(N[C@H]2CC[C@@H](CNC(=O)Nc3ccccc3C(F)(F)F)CC2)nc2ccccc12` [compound 455, N-[(cis-4-{[4-(dimethylamino)quinazolin-2-yl]amino}cyclohexyl)methyl]-N′-[2-(trifluoromethyl)phenyl]urea], the class is on record as 1 (Class 1: The value of percent of control at 10^−7 M was less than 40% or the value of IC50 was less than 50 nM.). The value for `CN(C)c1nc(N[C@H]2CC[C@@H](CNC(=O)Nc3cccc(C(F)(F)F)c3)CC2)nc2ccccc12` [compound 456] was 3 (Class 3: The value of percent of control at 10^−7 M was more than 60% or the value of IC50 was more than 200 nM.); that for `Cc1ccc(NC(=O)NC[C@H]2CC[C@@H](Nc3nc(N(C)C)c4ccccc4n3)CC2)cc1` [compound 457, N-[(cis-4-{[4-(dimethylamino)quinazolin-2-yl]amino}cyclohexyl)methyl]-N′-(4-methylphenyl)urea] was 1 (Class 1: The value of percent of control at 10^−7 M was less than 40% or the value of IC50 was less than 50 nM.). With `Cc1cc(C)c(NC(=O)NC[C@H]2CC[C@@H](Nc3nc(N(C)C)c4ccccc4n3)CC2)c(C)c1` [compound 458, N-[(cis-4-{[4-(dimethylamino)quinazolin-2-yl]amino}cyclohexyl)methyl]-N′-mesitylurea], the class is on record as 1 (Class 1: The value of percent of control at 10^−7 M was less than 40% or the value of IC50 was less than 50 nM.). For `Cc1cccc(NC(=O)NC[C@H]2CC[C@@H](Nc3nc(N(C)C)c4ccccc4n3)CC2)c1` [compound 459, N-[(cis-4-{[4-(dimethylamino)quinazolin-2-yl]amino}cyclohexyl)methyl]-N′-(3-methylphenyl)urea] the value was 2 (Class 2: The value of percent of control at 10^−7 M was from 40% to 60% or the value of IC50 was from 50 nM to 200 nM.). For `Cc1ccccc1NC(=O)NC[C@H]1CC[C@@H](Nc2nc(N(C)C)c3ccccc3n2)CC1` [compound 460, N-[(cis-4-{[4-(dimethylamino)quinazolin-2-yl]amino}cyclohexyl)methyl]-N′-(2-methylphenyl)urea] the value was 1 (Class 1: The value of percent of control at 10^−7 M was less than 40% or the value of IC50 was less than 50 nM.); for `CN(C)c1nc(N[C@H]2CC[C@@H](CNC(=O)Nc3c(Cl)cc(Cl)cc3Cl)CC2)nc2ccccc12` [compound 463, N-[(cis-4-{[4-(dimethylamino)quinazolin-2-yl]amino}cyclohexyl)methyl]-N′-(2,4,6-trichlorophenyl)urea], 1 (Class 1: The value of percent of control at 10^−7 M was less than 40% or the value of IC50 was less than 50 nM.); for `Cc1ccc(NC(=O)NC[C@H]2CC[C@@H](Nc3nc(N(C)C)c4ccccc4n3)CC2)cc1Cl` [compound 464], 3 (Class 3: The value of percent of control at 10^−7 M was more than 60% or the value of IC50 was more than 200 nM.). For `CC(NC(=O)NCC1CCC(Nc2nc(N(C)C)c3ccccc3n2)CC1)c1ccccc1` (stereo not shown) [compound 466, 1-[4-(4-Dimethylamino-quinazolin-2-ylamino)-cyclohexylmethyl]-3-(1-phenyl-ethyl)-urea] the value was 2 (Class 2: The value of percent of control at 10^−7 M was from 40% to 60% or the value of IC50 was from 50 nM to 200 nM.); for `CC(NC(=O)NCC1CCC(Nc2nc(N(C)C)c3ccccc3n2)CC1)c1cccc2ccccc12` (stereo not shown) [compound 467], 2 (Class 2: The value of percent of control at 10^−7 M was from 40% to 60% or the value of IC50 was from 50 nM to 200 nM.); for `CC(C)c1cccc(C(C)C)c1NC(=O)NC[C@H]1CC[C@@H](Nc2nc(N(C)C)c3ccccc3n2)CC1` [compound 468], 1 (Class 1: The value of percent of control at 10^−7 M was less than 40% or the value of IC50 was less than 50 nM.).

Regarding `CN(C)c1nc(N[C@H]2CC[C@@H](CNC(=O)Nc3ccccc3OC(F)F)CC2)nc2ccccc12` [compound 469, N-[2-(difluoromethoxy)phenyl]-N′-[(cis-4-{[4-(dimethylamino)quinazolin-2-yl]amino}cyclohexyl)methyl]urea], the class is given as 2 (Class 2: The value of percent of control at 10^−7 M was from 40% to 60% or the value of IC50 was from 50 nM to 200 nM.). For `COC(=O)c1ccccc1NC(=O)NC[C@H]1CC[C@@H](Nc2nc(N(C)C)c3ccccc3n2)CC1` [compound 470, methyl 2-[({[(cis-4-{[4-(dimethylamino)quinazoalin-2-yl]amino}cyclohexyl)methyl]amino}carbonyl)amino]benzoate] the value was 3 (Class 3: The value of percent of control at 10^−7 M was more than 60% or the value of IC50 was more than 200 nM.). The value for `CSc1ccccc1NC(=O)NC[C@H]1CC[C@@H](Nc2nc(N(C)C)c3ccccc3n2)CC1` [compound 471, N-[(cis-4-{[4-(dimethylamino)quinazolin-2-yl]amino}cyclohexyl)methyl]-N′-[2-(methylthio)phenyl]urea] was 2 (Class 2: The value of percent of control at 10^−7 M was from 40% to 60% or the value of IC50 was from 50 nM to 200 nM.); that for `CN(C)c1nc(N[C@H]2CC[C@@H](CNC(=O)Nc3c(Cl)c(Cl)cc(Cl)c3Cl)CC2)nc2ccccc12` [compound 472, N-[(cis-4-{[4-(dimethylamino)quinazolin-2-yl]amino}cyclohexyl)methyl]-N′-(2,3,5,6-tetrachlorophenyl)urea] was 2 (Class 2: The value of percent of control at 10^−7 M was from 40% to 60% or the value of IC50 was from 50 nM to 200 nM.). Consider `Cc1ccc([N+](=O)[O-])c(NC(=O)NC[C@H]2CC[C@@H](Nc3nc(N(C)C)c4ccccc4n3)CC2)c1C` [compound 473], for which the class is recorded as 1 (Class 1: The value of percent of control at 10^−7 M was less than 40% or the value of IC50 was less than 50 nM.). For `CN(C)c1nc(N[C@H]2CC[C@@H](CNC(=O)Nc3cc(Cl)c(Cl)cc3Cl)CC2)nc2ccccc12` [compound 474] the value was 3 (Class 3: The value of percent of control at 10^−7 M was more than 60% or the value of IC50 was more than 200 nM.). The value for `CN(C)c1nc(N[C@H]2CC[C@@H](CNC(=O)Nc3c(F)cc(Br)cc3Br)CC2)nc2ccccc12` [compound 476, N-(2,4-dibromo-6-fluorophenyl)-N′-[(cis-4-{[4-(dimethylamino)quinazolin-2-yl]amino}cyclohexyl)methyl]urea] was 1 (Class 1: The value of percent of control at 10^−7 M was less than 40% or the value of IC50 was less than 50 nM.).

Source of the values: patent US20070010671A1, “Novel quinazoline derivatives and methods of treatment related to the use thereof” (priority 2003, published 2007).
